# Experimental data as given in paper PMC12264943, “Identification of New Human P2X7 Antagonists Using Ligand- and Structure-Based Virtual Screening” (Journal of Chemical Information and Modeling, 2025).
# Legend:
# Format in all cases: cell-based
# hP2X7 [1] = target: T1, hP2X7 (Homo sapiens, UniProt Q99572); test: YO-PRO 1 dye uptake assay, HEK-293 cells stably transfected with hP2X7
# T1 construct: expressed in transfected cells; host or cells: HEK-293, stably transfected (gift of E. Adinolfi's group, Ferrara University)
# T1 sequence (Q99572 1-595): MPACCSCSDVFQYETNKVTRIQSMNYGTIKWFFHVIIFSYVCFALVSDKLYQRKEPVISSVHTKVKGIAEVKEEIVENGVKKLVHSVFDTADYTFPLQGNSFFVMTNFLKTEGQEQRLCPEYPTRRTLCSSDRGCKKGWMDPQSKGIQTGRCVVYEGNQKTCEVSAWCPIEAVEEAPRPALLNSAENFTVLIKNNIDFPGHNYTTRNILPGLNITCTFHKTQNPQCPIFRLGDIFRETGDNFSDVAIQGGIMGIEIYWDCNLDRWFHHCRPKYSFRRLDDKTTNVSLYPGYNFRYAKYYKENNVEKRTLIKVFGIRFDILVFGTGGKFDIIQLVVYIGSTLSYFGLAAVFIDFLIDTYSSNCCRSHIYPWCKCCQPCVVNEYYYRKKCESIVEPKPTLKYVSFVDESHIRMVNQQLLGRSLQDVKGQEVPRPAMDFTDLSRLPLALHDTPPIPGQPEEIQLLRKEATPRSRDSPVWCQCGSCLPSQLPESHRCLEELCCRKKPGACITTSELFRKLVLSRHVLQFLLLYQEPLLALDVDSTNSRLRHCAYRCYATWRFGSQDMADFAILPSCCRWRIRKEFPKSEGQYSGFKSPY
# Description: (§1) Astrocytoma 1321 N1 (established by Dr. Gaia Pasqualetto) and HEK-293 (kindly gifted by E. Adinolfi’s group, Ferrara University) both stably transfected with hP2X7, were used to assess the activity of the small molecules selected from the VS. Cells were maintained in DMEM:F12 (PanBiotech) supplemented with 10% FBS, 1% pen-strep, and 150 μg/mL G418 (PanBiotech).
# Astrocytoma 1321 N1 cells (2–2.5 × 10^4 cells/well) and HEK-293 cells (4–5 × 10^4 cells/well) expressing hP2X7 were seeded in poly-L-lysine-coated 96-well plates (Sarstedt) 24 h before the experiment. YO-PRO 1 dye was prepared at 5 μM in extracellular solution with low divalent cations (ECS-LD) buffer (147 mM NaCl, 10 mM HEPES, 13 mM glucose, 0.2 mM CaCl2, 2 mM KCl, pH 7.4) and added to cells after washing them with Dulbecco’s phosphate- buffered saline (DPBS) (PanBiotech) and incubated for 20 min at 37 °C. ATP-induced dye uptake, mediated by hP2X7 activation, was monitored using a Clariostar plate reader (excitation: 485 nm; emission: 538 nm) for 30 cycles (75–150 s/cycle), after recording the baseline for five cycles. hP2X7 activation was quantified at cycle 10 by calculating the fluorescence intensity (FI) ratio (Δ(Fcycle 10–F cycle 1)/cycle time).
# Compounds 2 and 9, identified as hits, were further evaluated for concentration-dependent inhibition (IC50) of hP2X7 activation in the YO-PRO 1 dye uptake assay using HEK-293 cells stably transfected with hP2X7 (unfortunately, at this point in the study, the stably transfected 1321N1 cells lost P2X7 expression, and we were unable to recover them from frozen aliquots), for which the ATP EC50 was determined to be approximately 1 mM (Supporting material Figure 4C). Seven concentrations (100 to 0.03 μM) were tested, but due to precipitation at 100 μM, the DMSO concentration was increased to 1%.
# 3 Inhibitory concentration response evaluation of compounds 2 and 9 and their groups highlighted for SAR. […] Compound activity was evaluated along a time of 20 min (75 s per cycle) after ATP addition (700 μM). The fluorescence intensity (FI) values of the first 10 cycles were considered for assessing their ability to inhibit hP2X7. The curves represent three biological replicates (n = 4 per replicate). Data were normalized by setting as 100% the FI recorded by hP2X7 HEK-293 cells incubated in 1% DMSO and stimulated by ATP, and as 0% the FI recorded by the same cells but treated with ECS-LD (assay buffer). (C) Highlighted areas of compound 2 considered for SAR study. R1 refers to the ethyl-benzyl group of the molecules, and R2 and R3 refer to the benzo-(1,3)-dioxol groups. (D) Highlighted areas of compound 9 considered for SAR study. We have defined the area highlighted in yellow and numbered as 1 as the “front” region of the molecule and the one colored in pink and named as 2 as the “back” region of the molecule. L highlights the urea and amide linkers of compounds 2 and 9, respectively.
# (§2) 4 Evaluation of compound 2 and 9 analogue activity using YO-PRO 1 and MPR assays. The activity of compound 2 (A and B) and 9 (C and D) analogues was evaluated in YO-PRO 1 (A and C) and MPR (B and D) assays. The compounds were tested at 10 μM and preincubated for either 20 (YO-PRO 1) or 30 min (MPR). The baseline was recorded for 5 cycles before ATP treatment (1 mM). Fluorescence was recorded for 25 (YO-PRO 1) or 5 min (MPR). The data were normalized by setting as 100% for the fluorescence measured from hP2X7 HEK-293 cells incubated with vehicle (0.1% DMSO) and treated with 1 mM ATP and 0% for the fluorescence recorded by the cells not treated with ATP. The data shown correspond to three independent biological replicates (3 technical replicates per experiment; error bars represent the SEM from the mean values of each biological replicate (n = 3)). The statistical analysis was performed with one-way Anova using Dunnett’s function (P**** < 0.0001; P*** < 0.0003; P** < 0.002; P* < 0.02).
# hP2X7 [2] = target: T1, hP2X7; test: Membrane Potential Red (MPR) dye assay, HEK-293 cells stably transfected with hP2X7; settings: HEK293, 1 mM ATP, hP2X7 HEK-293
# Description: as §1
# Cells were plated as described for the YO-PRO 1 dye uptake assay. MPR dye (Molecular Devices) was prepared following the manufacturer’s protocol and diluted 1:10 in ECS-LD buffer. After washing with DPBS, cells were incubated with the dye for 30 min at 37 °C. Fluorescence changes (excitation: 525 nm; emission: 560 nm) were recorded using a Clariostar plate reader during ATP-induced membrane depolarization. Baseline fluorescence was recorded for 5 cycles, and ATP was added via an automated injector (10 μL). Membrane depolarization was quantified as the ratio of the maximal fluorescence change over baseline intensity (Δ(F max–F0)/F0)).
# as §2
# HEK-293 WT cells = test: Cytotoxicity assay (CellTiter Blue); settings: 10 μM, 24 h, nontransfected HEK-293 cells
# Description: HEK-293 WT cells were seeded at 4 × 10^4 cells/well in 96-well plates precoated with poly-L-lysine. After 24 h, the cells were washed with DPBS and treated with test compounds (10 μM) in 2% FBS-containing medium for 24 h. After this, the medium containing the test compounds was replaced with 20% CellTiter-Blue reagent (Promega) in 2% FBS medium. After a 2-h incubation, fluorescence (excitation: […]; emission: […]) was measured using a Clariostar plate reader. Data were normalized to untreated control cells (100%) and wells without cells (0%).
# 5 Concentration inhibition curve determination for compound 2g (A) and evaluation of cytotoxicity for compounds 2, 9, and 2g. […] The data on the graph represent the mean from three independent experiments (n = 3 replicates per experiment). (B) The cytotoxicity of the compounds was evaluated on nontransfected HEK-293 cells using a CellTiter Blue assay. The cells were incubated for 24 h with the compounds at 10 μM. The fluorescent signal obtained from vehicle-treated cells (0.1% DMSO) was used to normalize the data to 100%, and the one obtained from wells not containing cells (BLANK) was set as 0%. The data are the combination of three biological replicates (error bars represent the SEM (n = 3)) analyzed by one-way ANOVA using Dunnet’s function (P**** < 0.0001; **< 0.002; * < 0.02; ns, non significant).
# The potential cytotoxicity of the hit compounds identified, 2, 9, and 2g, was assessed at 10 μM by CellTiter Blue assay using nontransfected HEK-293 cells (Figure B).
structure (smiles),measurement,setting,value
O=C(Nc1ccc2c(c1)OCO2)NC(Cc1ccc(F)cc1)Cc1ccc(F)cc1 [Compound 2g],IC50,"hP2X7 [1]; YO-PRO 1 dye uptake, hP2X7 HEK-293 cells, 100 to 0.03 μM, 1% DMSO, read-out: IC50, inhibition of hP2X7 activation",1.31 µM
same,"hP2X7 inhibition in YO-PRO 1 dye uptake, SAR","hP2X7 [1]; analogues at 10 μM, 1 mM ATP",retained potency comparable to that of the hit compound
same,reduction of hP2X7 activity,"hP2X7 [1]; analogues at 10 μM, YO-PRO 1, 1 mM ATP, 0.1% DMSO",80%
same,inhibition at 10 µM,hP2X7 [2],70%
same,reduction in cell viability,HEK-293 WT cells,~10%
